Results: US20210186972A1, “FORMULATIONS AND METHODS FOR THE PREVENTION AND TREATMENT OF TUMOR METASTASIS AND TUMORIGENESIS” (THE UNITED STATES OF AMERICA, AS REPRESENTED BY THE …, priority 2018, published 2021)

How the values were obtained:
[1] = system: human cancer cell lines; experiment: PNC prevalence in a range of cancer cell lines; type: cell-based; details: 1 μM, 24 hours, different human cancer cell lines
Description: FIG. 2 is a bar graph showing that 1 μM metarrestin was effective at reducing PNCs in a range of cancer cell lines (p<0.05 for PNC reduction in all cell lines; the list of cells is in Table 1 below, see also Example 2 below). The DMSO control is shown in light grey bars and metarrestin in dark grey bars. PNC prevalence (%) is on the y-axis and the cell line names are along the x-axis.
In summary, several cell types (see list below in Table 1) were treated with 1 μM (IC100 for PC3M cells) of metarrestin for 24 hours. Specifically, PC-3M cells were maintained in RPMI 1640 medium. Other cell lines including HeLa, Panel, PACADD159, PACADD183, PA-TU-8988T, KP-3, PK-8, NOR-P1, L3.6sl, Colo357, Suit-2, HP AC were maintained in DMEM with 10% FBS (GEMINI™ Bio Products) and 100 units/mL of penicillin and streptomycin. Cells were generally plated approximately 24 h before treatment with metarrestin for 5 h or 24 h at 1 μM.

[2] = system: PC3M cells; experiment: Cell growth (INCUCYTE confluence), PC3M; type: cell-based, human
Text: The confluence (%) is on the y-axis and the time (in hours) is on the x-axis. The top most line is GM02153-DMSO, the second line from the top is PC3M-DMSO, the third line from the top is GM02153-metarrestin, and the bottom line is PC3M-metarrestin.

[3] = parameters: species or system NSG PANC1 mice; details: NSG (Nod/IL2gamma null), mouse, in vivo, po, 10 mg/kg, 1 h
[4] = system: PC3M xenograft mice; experiment: PC3M xenograft prostate cancer model; type: in vivo
Description: Metarrestin was tested in PC3M xenograft mice to determine whether metarrestin's anti-metastasis activity (observed in the NSG PANC1 mice and in vitro pan-cancer PNC suppression) translates into anti-metastasis activity in additional cancer models. Two weeks after subcutaneous implantation of PC3M cells, mice were started on 5 mg/kg or 25 mg/kg metarrestin or vehicle by daily IP injection for 4 additional weeks. Tumor progression was tracked by both in vivo imaging systems (“IVIS”) spectroscopy and tumor volume. Metastasis to the lungs was evaluated ex vivo through IVIS spectroscopy and by histopathology at the experimental endpoint. […] To evaluate the effect of metarrestin on a malignant xenograft considered closest to in vivo conditions, a patient-derived breast cancer xenotransplantation model (PDX) was used. Metastatic breast cancer cells harvested from the pleural fluid of a stage IV ductal breast cancer patient were inoculated into mice, and third generation mouse-passaged tumors were transplanted into the mammary fat pad of NOD.Cg-Prkdc^scid Il2rg^tm1Sug/JicTac mice. Treatment with metarrestin started after the tumors reached 150-200 mm^3. Metarrestin (25 mg/kg) or vehicle was administered daily by IP injection for 4 weeks with a 5-day on and 2-day off schedule. Tumor size and total body weight were measured twice a week, and tumor weight was measured at experimental end-point.
Prostate cancer model: Mice were implanted in the flank with 3×10^6 human PC-3M-luc-C6 […] tumor cells (Caliper Life Sciences) and split into 4 groups of 10 mice. Dosing with 5 or 25 mg/kg drug or vehicle alone (negative control) was initiated after 2 weeks and continued until the experimental endpoint, 6 weeks after implantation. Primary tumor size (measured with calipers), live tumor cell content (measured by biophotonic imaging), and total body weight were determined each week. At the endpoint, animals were euthanized, metastatic organs removed, and metastases quantitated by biophotonic imaging of the organs.

[5] = system: normal mouse hepatocytes; experiment: Nucleolar volume by EM in normal liver tissue; type: in vivo; details: treated normal mouse hepatocytes
Description: FIGS. 49A-49C are graphs showing quantitative evaluation of the EM images of FIG. 48.
(§1) The nucleolar disruption was reversible within 48 hours upon withdrawal of metarrestin (FIG. 47). Similar disruptions were observed among other treated cell lines, including PANC1 and PC3M cells (FIG. 48), primary tumor, and liver metastatic tissues in the PANC1 xenograft model (FIG. 21, right panels). […] The segregation of the nucleolar compartments observed by EM is believed to correspond to the nucleolar capping structures detected by immunofluorescence of nucleolar proteins (FIGS. 21A-21C, 23, and 50). The coupling of nucleolar segregation with PNC loss was confirmed across several cell lines by immunolabeling with antibodies against the nucleolar Pol I transcription initiation factors, UBF (upstream binding transcription factor) (FIGS. 23 and 50), or Pol I polymerase, RPA194 (FIG. 51). Factors involved in ribosome maturation, such as fibrillarin or NOPP140 (FIGS. 51 and 52) were similarly reorganized. In contrast, UBF distribution was not changed when the normal human fibroblast GM02153 cell line was treated with metarrestin at the same concentration (FIG. 53).

[6] = system: normal human fibroblast GM02153 cell line; experiment: UBF distribution (nucleolar capping) in normal fibroblasts; type: cell-based
Description: as §1

[7] = system: PANC1, PC3M, and HeLa; experiment: DNA damage response, cell cycle and apoptosis; type: cell-based
Description: Genotoxic agents that intercalate into or alkylate DNA, such as actinomycin D, induce similar nucleolar segregation to that observed with metarrestin treatment. To determine whether metarrestin induces nucleolar changes through genotoxic effects or general cytotoxicity, the impact of metarrestin on DNA damage repair, cell cycle, and general Pol II transcription status in three cell lines, PANC1, PC3M, and HeLa, was evaluated. […]

[8] = system: eEF1A; experiment: Affinity purification with biotin-conjugated metarrestin and competition; type: binding
Text: FIG. 35 is a Western blot illustrating that metarrestin effectively outcompeted recombinant eEF1A from binding to anchored biotinylated metarrestin-eEF1A complex. […] Increased eEF1A2 enhances PNCs and metastasis formation.

[9] = system: eEF1A; experiment: Western blot of total eEF1A; type: cell-based; details: 1 μM, 24 hours

N=c1c2c(-c3ccccc3)c(-c3ccccc3)n(Cc3ccccc3)c2ncn1[C@H]1CC[C@H](O)CC1 [metarrestin]
PNC prevalence [1]: reduced PNC prevalence
PC3M cell growth ([2]; 0.6 μM, after 24 hours of treatment): did not affect PC3M or PANC1 cell growth
Cell growth in PC3M cancer cells ([2]; 1 μM, extended time, INCUCYTE): preferentially inhibited cell growth
Concentration in primary tumors above the IC90 of 0.75 μM [3]: more than 10 fold
Growth of primary tumor xenografts ([4]; 25 mg/kg daily IP for 4 weeks): modestly reduced growth
Lung metastasis ([4]; 25 mg/kg daily IP for 4 weeks, P<0.05 vs vehicle): decreased development of lung metastasis
Body weight and behavior ([4]; daily IP for 4 weeks): not significantly different
Nucleolar volume [5]: not changed
UBF distribution ([6]; 1 μM): not changed
UBF capping ([6]; 5 μM): did not become completely capped
Apoptotic index, cells undergoing apoptosis [7]: less than 1%
DNA damage response signature factors ([7]; 1 μM, 24 hours): neither phosphorylated yH2AX or p53BP1, nor phosphorylated p53
Cell cycle pattern (DNA content, flow cytometry) ([7]; two different concentrations within 24 hours): did not show a significant alteration of cell cycle pattern
Binding to eEF1A (competition and proteomic analysis) [8]: metarrestin-binding protein
Total eEF1A protein [9]: remained similar
